As a reminder, the EC50 is the concentration at which the effect is half-maximal.

Molecules are shown by their SMILES.

What all share (format): cell-based
Assay [1] relates to MDA-MB-231. Description: Cell viability panel, CyQUANT Direct. To be noted: Homo sapiens, Breast Cancer, 48 hours, read-out: Compound EC50. As to the method: (§1) Cell viability panel studies. Cells were diluted in the corresponding ATCC recommended medium and dispensed in a 384-well plate, depending on the cell line used, at a density of 200-6400 cells per well. For each used cell line, the optimal cell density was used. Compound was serially diluted and 8 concentration (0.04-32 μM) were added to the cells for 72 h exposure. At t=end, of ATPlite 1Step™ (PerkinElmer) were used to calculate cell viability. Cell lines marked with asterisk were seeded 24 h prior to treatment in 96-well plates at the density range of 5,000-40,000 cells/well, according to duplication rate, in RPMI 1640 medium containing 10% fetal bovine serum and 2 mM L-glutamine. Compounds were diluted from 10 mM DMSO stock and treatment was applied at the range of 0.04-1 μM. Following incubation at 37° C. for 48 hours with increasing concentrations of the compounds, viability was determined with CyQUANT® Direct Assay Kit (Invitrogen). Output intensities were normalized to values after treatment with DMSO alone, and EC50 values were calculated using the absorbance measurements [time zero, (Tz), growth control, (C), plus the test growth at the four drug concentration levels (Ti)] as follows: [(Ti−Tz)/(C−Tz)]×100 for concentrations for which Ti>/=Tz; [(Ti−Tz)/Tz]×100 for concentrations for which Ti−<Tz.

For another assay, the system named is OVCAR-8. Nature of the assay: Cell viability panel, CyQUANT Direct. The settings on record: Homo sapiens, Ovarian Cancer, 48 hours, read-out: Compound EC50. Here is the method:
as §1

In assay [2] the test system is SK-OV-3. Nature of the assay: Cell viability panel, CyQUANT Direct. The settings on record: Homo sapiens, Ovarian, 48 hours, read-out: Compound EC50. As to the method: as §1
For a further assay, the system named is UACC-62. Description: Cell viability panel, CyQUANT Direct. The settings on record: Homo sapiens, Melanoma, 48 hours, read-out: Compound EC50. As to the method: as §1
The test system of another assay is MDA-MB-435. Nature of the assay: Cell viability panel, CyQUANT Direct. The settings on record: Homo sapiens, Melanoma, 48 hours, read-out: Compound EC50. As to the method:
as §1

For the next assay, the system named is MALME-3M. Nature of the assay: Cell viability panel, CyQUANT Direct. To be noted: Homo sapiens, Melanoma, 48 hours, read-out: Compound EC50. Here is the method: as §1
The test system of a further assay is CAKI-1. Description: Cell viability panel, CyQUANT Direct. To be noted: Homo sapiens, Renal cancer, 48 hours, read-out: Compound EC50. Here is the method:
as §1

The next assay has as its system RXF-393. Nature of the assay: Cell viability panel, CyQUANT Direct. To be noted: Homo sapiens, Renal cancer, 48 hours, read-out: Compound EC50. Here is the method:
as §1

For a further assay, the system named is LOX IMVI. Description: Cell viability panel, CyQUANT Direct. The settings on record: Homo sapiens, Melanoma, 48 hours, read-out: Compound EC50. As to the method:
as §1

The test system of a further assay is HOP-92. Nature of the assay: Cell viability panel, CyQUANT Direct. The settings on record: Homo sapiens, Lung cancer, 48 hours, read-out: Compound EC50. Here is the method:
as §1

For another assay, the system named is HT-29. Nature of the assay: Cell viability panel, CyQUANT Direct. To be noted: Homo sapiens, Colon cancer, 48 hours, read-out: Compound EC50. As to the method:
as §1

Another assay has as its system SK-MEL-2. Description: Cell viability panel, CyQUANT Direct. The settings on record: Homo sapiens, Melanoma, 48 hours, read-out: Compound EC50. As to the method: as §1
For another assay, the system named is HCC-2998. Nature of the assay: Cell viability panel, CyQUANT Direct. The settings on record: Homo sapiens, Colon cancer, 48 hours, read-out: Compound EC50. Here is the method:
as §1

A further assay deals with SF-539. Nature of the assay: Cell viability panel, CyQUANT Direct. The settings on record: Homo sapiens, CNS, 48 hours, read-out: Compound EC50. Here is the method:
as §1

Another assay relates to NCI-H322M. Nature of the assay: Cell viability panel, CyQUANT Direct. To be noted: Homo sapiens, Lung cancer, 48 hours, read-out: Compound EC50. Here is the method:
as §1

The next assay relates to SK-MEL-5. Description: Cell viability panel, CyQUANT Direct. To be noted: Homo sapiens, Melanoma, 48 hours, read-out: Compound EC50. As to the method: as §1
The test system of assay [3] is SF-268. Nature of the assay: Cell viability panel, CyQUANT Direct. The settings on record: Homo sapiens, CNS, 48 hours, read-out: Compound EC50. Here is the method: as §1
The test system of another assay is SNB-75. Nature of the assay: Cell viability panel, CyQUANT Direct. The settings on record: Homo sapiens, CNS, 48 hours, read-out: Compound EC50. As to the method: as §1
In a further assay the test system is IGR-OV1. Description: Cell viability panel, CyQUANT Direct. The settings on record: Homo sapiens, IGROV-1, Ovarian cancer, 48 hours, read-out: Compound EC50. As to the method:
as §1

A further assay has as its system OVCAR-4. Description: Cell viability panel, CyQUANT Direct. To be noted: Homo sapiens, Ovarian Cancer, 48 hours, read-out: Compound EC50. As to the method:
as §1

The next assay concerns UO-31. Description: Cell viability panel, CyQUANT Direct. To be noted: Homo sapiens, Renal cancer, 48 hours, read-out: Compound EC50. Here is the method: as §1
The next assay relates to OVCAR-5. Description: Cell viability panel, CyQUANT Direct. To be noted: Homo sapiens, Ovarian Cancer, 48 hours, read-out: Compound EC50. As to the method: as §1
Assay [4] relates to TK-10. Description: Cell viability panel, CyQUANT Direct. The settings on record: Homo sapiens, Renal cancer, 48 hours, read-out: Compound EC50. As to the method:
as §1

Assay [5] has as its system SK-MEL-28. Nature of the assay: Cell viability panel, CyQUANT Direct. To be noted: Homo sapiens, Melanoma, 48 hours, read-out: Compound EC50. Here is the method: as §1
The subject of another assay is SNB-19. Description: Cell viability panel, CyQUANT Direct. The settings on record: Homo sapiens, CNS, 48 hours, read-out: Compound EC50. As to the method: as §1
A further assay concerns MDA-MB-468. Description: Cell viability panel, CyQUANT Direct. The settings on record: Homo sapiens, Breast cancer, 48 hours, read-out: Compound EC50. As to the method:
as §1

Assay [6] relates to TK-10. Nature of the assay: NCI60 screen cytotoxicity. To be noted: Homo sapiens, Renal cancer, read-out: Compound B1 EC50.
Assay [7] relates to MDA-MB-231. Description: NCI60 screen cytotoxicity. To be noted: Homo sapiens, Breast cancer, read-out: Compound B1 EC50.
The test system of a further assay is U251. Description: NCI60 screen cytotoxicity. To be noted: Homo sapiens, U-251, CNS, read-out: Compound B1 EC50.
The test system of assay [8] is SF-268. Nature of the assay: NCI60 screen cytotoxicity. To be noted: Homo sapiens, CNS, read-out: Compound B1 EC50.
Another assay has as its system HCT-15. Nature of the assay: NCI60 screen cytotoxicity. The settings on record: Homo sapiens, Colon cancer, read-out: Compound B1 EC50.
In another assay the test system is M14. Nature of the assay: NCI60 screen cytotoxicity. To be noted: Homo sapiens, Melanoma, read-out: Compound B1 EC50.
The test system of assay [9] is SK-OV-3. Description: NCI60 screen cytotoxicity. To be noted: Homo sapiens, Ovarian cancer, read-out: Compound B1 EC50.
The subject of a further assay is OVCAR-3. Description: NCI60 screen cytotoxicity. To be noted: Homo sapiens, Ovarian cancer, read-out: Compound B1 EC50.
Assay [10] has as its system SK-MEL-28. Description: NCI60 screen cytotoxicity. The settings on record: Homo sapiens, Melanoma, read-out: Compound B1 EC50.
The next assay relates to A-549. Nature of the assay: NCI60 screen cytotoxicity. To be noted: Homo sapiens, A549, Lung cancer, read-out: Compound B1 EC50.

With `CN(C)CCCS(=O)(=O)N1C/C(=C\c2ccc(C#N)cc2)C(=O)/C(=C/c2ccc(C#N)cc2)C1` [Compound AA], the EC50 in the assay on MDA-MB-231 [1], with OVCAR-8, in the assay with SK-OV-3 [2], with UACC-62, with MDA-MB-435 and with MALME-3M was below 300 nM each time. The EC50 with CAKI-1 is at least 1000 nM; in the assay on RXF-393, at least 1000 nM; in the assay on LOX IMVI, below 300 nM; in the assay on HOP-92, 300 to 1000 nM; in the assay with HT-29, 300 to 1000 nM; with SK-MEL-2, below 300 nM. The EC50 in the assay on HCC-2998 is 300 to 1000 nM; in the assay on SF-539, below 300 nM; in the assay with NCI-H322M, 300 to 1000 nM; in the assay on SK-MEL-5 it was below 300 nM; in the assay with SF-268 [3], below 300 nM; in the assay on SNB-75 it was 300 to 1000 nM. In addition, the EC50 in the assay on IGR-OV1 was below 300 nM; in the assay on OVCAR-4 it was 300 to 1000 nM; in the assay on UO-31, 300 to 1000 nM; with OVCAR-5, below 300 nM; with TK-10 [4], 300 to 1000 nM; in the assay on SK-MEL-28 [5], below 300 nM. Further, the EC50 in the assay on SNB-19 and in the assay on MDA-MB-468 was below 300 nM in each case.
Regarding `CN(C)CC(=O)NCC(=O)N1C/C(=C\c2ccc(C#N)cc2)C(=O)/C(=C/c2ccc(C#N)cc2)C1` [Compound B1], the EC50 in the assay with TK-10 [6] was 300 to 1000 nM; in the assay on MDA-MB-231 [7], below 300 nM; with U251, below 300 nM; in the assay with SF-268 [8] it was below 300 nM; in the assay on HCT-15, below 300 nM; with M14 it was below 300 nM. The EC50 was below 300 nM with SK-OV-3 [9], below 300 nM in the assay with OVCAR-3, 300 to 1000 nM in the assay on SK-MEL-28 [10] and 300 to 1000 nM in the assay on A-549.
